pKi: −log10 of the molar value.

Sequence of FKBP12 (P62942 whole entry, species assumed): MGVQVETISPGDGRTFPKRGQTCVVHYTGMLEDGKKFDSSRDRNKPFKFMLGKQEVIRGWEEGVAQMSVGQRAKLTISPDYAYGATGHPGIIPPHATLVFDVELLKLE

This assay addresses FKBP12 (Homo sapiens, UniProt P62942). In words: Ki test procedure: inhibition of peptidyl-prolyl isomerase (rotamase) activity, chymotrypsin-coupled assay. The note with it: apparent Ki. It is filed as biochemical. An excerpt:
The inhibition of the prolyl peptidyl cis-trans isomerase activity of FKBP may be measured as an indicator of this affinity.
Inhibition of the peptidyl-prolyl isomerase (rotamase) activity of the compounds used in the pharmaceutical compositions can be evaluated by known methods described in the literature (Harding et al., Nature, 1989, 341:758-760; Holt et al. J. Am. Chem. Soc., 115:9923-9938).
The cis-trans isomerization of an alanine-proline bond in a model substrate, N-succinyl-Ala-Ala-Pro-Phe-p-nitroanilide, is monitored spectrophotometrically in a chymotrypsin-coupled assay, which releases para-nitroanilide from the trans form of the substrate. The inhibition of this reaction caused by the addition of different concentrations of inhibitor is determined, and the data is analyzed as a change in first-order rate constant as a function of inhibitor concentration to yield the apparent Ki values.
In a plastic cuvette are added […] of ice cold assay buffer (25 mM HEPES, pH 7.8, 100 mM NaCl), 10 mL of FKBP (2.5 mM in 10 mM Tris-Cl pH 7.5, 100 mM NaCl, 1 mM dithiothreitol), 25 mL of chymotrypsin (50 mg/ml in 1 mM HCl) and […] of test compound at various concentrations in dimethyl sulfoxide. The reaction is initiated by the addition of 5 mL of substrate (succinyl-Ala-Phe-Pro-Phe-para-nitroanilide, 5 mg/mL in 2.35 mM LiCl in trifluoroethanol).
The absorbance at 390 nm versus time is monitored for 90 seconds using a spectrophotometer and the rate constants are determined from the absorbance versus time data files.
On to `COC(=O)C(=O)N1CCCC[C@H]1C(=O)OCc1ccccc1` [Compound 16], for which the pKi (usually the negative decadic logarithm of the Ki, by convention in mol/L) was 4.10.
The same measure for `O=C(C(=O)N1CCCC[C@H]1C(=O)OCc1ccccc1)c1ccccc1` [Compound 10]: 5.82; for `O=C(C(=O)N1CCCC[C@H]1C(=O)OCCCCc1ccccc1)c1ccccc1` [Compound 13]: 6.46.
`O=C(C(=O)N1CCCC[C@H]1C(=O)OCCCCC1CCCCC1)c1ccccc1` [Compound 15]: the negative logarithm of the Ki (pKi) is 6.40.
`COc1ccc(CCCCOC(=O)[C@@H]2CCCCN2C(=O)C(=O)c2cc(OC)c(OC)c(OC)c2)cc1` [Compound 25]: the pKi is 7.89.
The same measure for `COC(=O)C(=O)N1CCCC[C@H]1C(=O)OCCCC1CCCCC1` [Compound 18]: 4.70.
For `COC(=O)C(=O)N1CCCC[C@H]1C(=O)OCCCC1CCCC1` [Compound 19] the value was 4.46; for `O=C(C(=O)N1CCCC[C@H]1C(=O)OCCc1ccccc1)c1ccccc1` [Compound 14], 5.96; for `O=C(C(=O)N1CCCC[C@H]1C(=O)OCc1ccccc1)c1ccco1` [Compound 20], 5.52.
As for `COc1cc(C(=O)C(=O)N2CCCC[C@H]2C(=O)OCCCCc2ccccc2)cc(OC)c1OC` [Compound 23], the pKi is 7.72.
